Test results from patent US8541470B2, “Topical pharmaceutical formulation” (Futura Medical Developments Limited, priority 2007, dated 2013).
Where a name gives a salt, the structure may show the parent alone.

Columns and labels:
[1] = saturated solubility in solvents; assay type: physicochemical
[2] = topical regional use; relative to piroxicam; cited from earlier work

O=C(O)Cc1ccccc1Nc1c(Cl)cccc1Cl [diclofenac acid]
saturated solubility in polyethylene glycol ([1]; solvent polyethylene glycol): 11.18 % w/w
saturated solubility in propanol or iso-propanol ([1]; solvent propanol or iso-propanol): 3-4%
saturated solubility in pure ethanol ([1]; solvent pure ethanol): 5 % w/w

O=C(O)Cc1ccccc1Nc1c(Cl)cccc1Cl [diclofenac]
efficacy index, factor greater than that for piroxicam [2]: ~1000

O=C(O)Cc1ccccc1Nc1c(Cl)cccc1Cl [sodium salt of diclofenac acid, diclofenac sodium]
saturated solubility in propylene glycol ([1]; solvent propylene glycol): approximately 50 % w/w
